# Results: publication PMC7615677 (Science translational medicine, 2023)
# Where two headings read alike, the source gives them in different places.
# Legend:
# [1] = In vitro cytotoxicity assay; format: cell-based; settings: mouse, primary mouse macrophages (PMM)
# Caco-2 cell monolayers = experiment: Caco-2 permeability; format: in vitro ADME
# Protocol: (§1) The ionization constant (pKa), octanol-pH 7.4 buffer partition coefficient (Log D7.4), solubility in biorelevant buffers (FaSSIF-V2, FeSSIF-V2, FaSSGF and pH 7.4 phosphate buffered saline (PBS)) and Caco-2 permeability were determined according to previously published methods ([10]).
# Caco-2 permeability = format: in vitro ADME; settings: human
# Protocol: as §1
# [2] = In vitro cytotoxicity assay; format: cell-based; settings: human, THP1 human monocytic leukaemia cells
# NaV1.5 = NaV1.5 (Homo sapiens, UniProt Q14524); experiment: Qube NaV1.5
# L. donovani = experiment: Leishmania intramacrophage in vitro assay; format: cell-based
# Protocol: A drug incubation period of 96 h was applied, and cells were stained with Giemsa for microscopic evaluation of cellular amastigote burdens. Percentage reduction compared to the burden in the infected non-treated control wells was used as a measure for drug activity.
# Alternatively, differentiated macrophage host cells derived from THP-1 (human leukemia monocytes) were infected at a multiplicity of infection of 1:2.5 (ratio of host cells to parasites) with L. donovani MHOM/IN/80/DD8 culture-maintained promastigotes. L. donovani MHOM/IN/80/DD8 (ATCC 50212) promastigote parasites and THP-1 (ATCC TIB202) cells were maintained as previously described ([20]). A drug incubation period of 96 h was applied, plates fixed with 4% paraformaldehyde and stained with SYBR® green and CellMask Deep Red™ (ThermoFisher Scientific). Images were acquired on an Opera high-content imaging system (PerkinElmer). Healthy host (THP-1) cells and intracellular amastigotes were identified using CellMask Deep Red cytoplasmic and SYBR green nuclear area and intensities, with intracellular parasites identified based on spot detection algorithms (size and intensity measurements used to define parasite nucleus) to determine the number of parasites present within THP-1 host cells. An infected cell was defined as a host cell containing >3 parasites within the cytoplasm boundary. Compound activity was determined based on the number of infected cells normalized to the positive (10μM DNDI-1044) and negative (0.4% DMSO) controls. Non-linear sigmoidal dose-response curves with no constraints were plotted, and IC50 was calculated. The IC50s were calculated from two independent experiments.
# hERG potassium channel = biological target: T1, hERG potassium channel (Homo sapiens, UniProt Q12809); experiment: hERG channel test (Qpatch / Qube); format: cell-based; settings: CHO cells stably expressing hERG potassium channels, Qpatch hERG (Fig. S15)
# T1 construct: host or cells: Chinese hamster ovary cells
# Protocol: Two concentrations (1 and 30 μM, two replicates each) were tested at room temperature.
# L. infantum = experiment: Chronic hamster infection model (VL); format: in vivo, golden hamsters
# From the text: Female golden hamsters (5 per treatment group) were infected through intracardiac administration of 2x10^7 L. infantum amastigotes obtained from the spleen of a heavily infected donor hamster. […] After 5-day treatment period, followed by a 10-day wash out period, animals were sacrificed, and parasites burden assessed in the three target organs (liver, spleen, and bone-marrow). For this assessment, organs of individual animals were weighed, except for bone-marrow thus only providing a semi-quantitative evaluation only. Impression smears were Giemsa-stained for microscopic evaluation of amastigote burden, expressed as LDU (= mean number of amastigotes/cell × organ weight in mg) and the results were expressed as a percentage reduction compared to the burdens in the control group (vehicle as placebo). For evaluating the presence of viable residual burden after treatment, a promastigote back-transformation assay was conducted. This consisted of the incubation at ambient temperature of aseptically collected pieces of spleen or liver tissue in 1 mL of promastigote back-transformation medium in 24-well plates. For the bone-marrow, resected femurs were flushed with 1 mL medium. The medium consists of HOMEM pH 6.0 prepared as described elsewhere ([5]) with 10% fetal bovine serum (Gibco), 2.5% penicillin/streptomycin and 1% gentamicin (Merck). […]
# In vivo pharmacokinetics = experiment: In vivo pharmacokinetics; parameters: species or system female BALB/c mice; settings: for AUC(0-t) / AUC / Cmax / Cmax at 5 days: mice, 5 days; for AUC(0-t): read-out: AUC0-24 (first dose); for AUC: read-out: AUC96-120 (last dose); for Cmax: read-out: Cmax (first dose); for Cmax at 5 days: read-out: Cmax (last dose)
# [3] = In vitro cytotoxicity assay; format: cell-based; settings: monkey, Vero monkey kidney epithelial cells
# [4] = L. donovani MHOM/ NP/2003/ BPK282/0-cl4
# [5] = L. donovani MHOM/ET/2007/LLM-1600
# [6] = L. donovani MHOM/NP/03/BPK275/0-cl18
# [7] = female, BALB/c, mouse, plasma, oral 3.6 mg/kg bid
# [8] = female, BALB/c, mouse, plasma, oral 7.1 mg/kg bid
# [9] = female, BALB/c, mouse, plasma, oral 12.5 mg/kg bid
# Sequence of NaV1.5 (Q14524 whole entry): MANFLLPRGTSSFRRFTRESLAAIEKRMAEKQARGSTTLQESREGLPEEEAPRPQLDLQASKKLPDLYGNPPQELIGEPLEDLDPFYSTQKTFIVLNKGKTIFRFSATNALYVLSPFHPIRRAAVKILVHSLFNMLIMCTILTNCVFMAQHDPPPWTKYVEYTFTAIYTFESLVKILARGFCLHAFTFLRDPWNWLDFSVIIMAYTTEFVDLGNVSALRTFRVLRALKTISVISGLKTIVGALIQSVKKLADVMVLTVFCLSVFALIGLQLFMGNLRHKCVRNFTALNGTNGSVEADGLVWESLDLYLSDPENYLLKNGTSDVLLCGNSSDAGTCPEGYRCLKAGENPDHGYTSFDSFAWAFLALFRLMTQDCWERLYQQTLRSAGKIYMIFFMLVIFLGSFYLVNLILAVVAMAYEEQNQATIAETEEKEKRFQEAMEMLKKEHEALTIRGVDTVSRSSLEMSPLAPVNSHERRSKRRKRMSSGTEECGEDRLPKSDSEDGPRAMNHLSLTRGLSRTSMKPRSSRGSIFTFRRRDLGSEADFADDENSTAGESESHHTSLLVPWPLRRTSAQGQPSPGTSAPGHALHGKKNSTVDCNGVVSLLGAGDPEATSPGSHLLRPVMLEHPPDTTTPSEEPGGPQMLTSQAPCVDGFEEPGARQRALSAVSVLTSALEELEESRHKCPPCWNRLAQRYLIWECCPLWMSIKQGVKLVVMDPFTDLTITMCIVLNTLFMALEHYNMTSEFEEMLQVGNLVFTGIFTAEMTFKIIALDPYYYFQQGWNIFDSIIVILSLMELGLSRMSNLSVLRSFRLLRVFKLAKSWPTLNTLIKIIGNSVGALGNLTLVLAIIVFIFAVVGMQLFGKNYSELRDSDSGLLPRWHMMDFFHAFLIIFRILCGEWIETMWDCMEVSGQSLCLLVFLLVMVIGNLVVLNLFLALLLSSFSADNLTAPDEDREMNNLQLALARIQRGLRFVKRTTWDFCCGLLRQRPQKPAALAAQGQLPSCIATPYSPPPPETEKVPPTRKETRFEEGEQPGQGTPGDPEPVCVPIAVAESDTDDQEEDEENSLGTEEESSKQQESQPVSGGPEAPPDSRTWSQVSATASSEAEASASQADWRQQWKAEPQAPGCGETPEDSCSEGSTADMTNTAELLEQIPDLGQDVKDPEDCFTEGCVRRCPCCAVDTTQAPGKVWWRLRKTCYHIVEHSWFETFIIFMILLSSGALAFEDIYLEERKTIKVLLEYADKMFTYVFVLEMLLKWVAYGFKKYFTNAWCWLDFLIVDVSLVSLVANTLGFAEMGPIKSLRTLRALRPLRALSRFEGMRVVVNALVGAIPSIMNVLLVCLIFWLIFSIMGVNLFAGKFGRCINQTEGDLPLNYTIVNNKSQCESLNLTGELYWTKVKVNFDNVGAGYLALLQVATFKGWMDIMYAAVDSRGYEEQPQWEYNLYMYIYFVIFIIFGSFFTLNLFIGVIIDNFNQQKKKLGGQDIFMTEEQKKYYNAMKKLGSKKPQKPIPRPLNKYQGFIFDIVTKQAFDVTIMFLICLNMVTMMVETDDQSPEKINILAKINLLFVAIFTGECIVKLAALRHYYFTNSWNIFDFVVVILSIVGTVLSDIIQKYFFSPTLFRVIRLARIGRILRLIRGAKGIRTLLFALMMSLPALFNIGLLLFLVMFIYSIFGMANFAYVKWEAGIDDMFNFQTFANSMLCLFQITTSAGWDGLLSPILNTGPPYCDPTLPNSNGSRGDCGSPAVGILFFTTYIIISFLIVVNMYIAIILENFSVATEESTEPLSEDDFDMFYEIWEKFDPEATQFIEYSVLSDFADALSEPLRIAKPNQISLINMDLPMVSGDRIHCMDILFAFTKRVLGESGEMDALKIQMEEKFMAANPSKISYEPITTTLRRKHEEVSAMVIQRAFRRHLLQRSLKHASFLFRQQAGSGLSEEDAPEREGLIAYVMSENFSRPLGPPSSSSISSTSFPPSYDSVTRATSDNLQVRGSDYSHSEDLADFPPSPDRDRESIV
# T1 sequence (Q12809 whole entry): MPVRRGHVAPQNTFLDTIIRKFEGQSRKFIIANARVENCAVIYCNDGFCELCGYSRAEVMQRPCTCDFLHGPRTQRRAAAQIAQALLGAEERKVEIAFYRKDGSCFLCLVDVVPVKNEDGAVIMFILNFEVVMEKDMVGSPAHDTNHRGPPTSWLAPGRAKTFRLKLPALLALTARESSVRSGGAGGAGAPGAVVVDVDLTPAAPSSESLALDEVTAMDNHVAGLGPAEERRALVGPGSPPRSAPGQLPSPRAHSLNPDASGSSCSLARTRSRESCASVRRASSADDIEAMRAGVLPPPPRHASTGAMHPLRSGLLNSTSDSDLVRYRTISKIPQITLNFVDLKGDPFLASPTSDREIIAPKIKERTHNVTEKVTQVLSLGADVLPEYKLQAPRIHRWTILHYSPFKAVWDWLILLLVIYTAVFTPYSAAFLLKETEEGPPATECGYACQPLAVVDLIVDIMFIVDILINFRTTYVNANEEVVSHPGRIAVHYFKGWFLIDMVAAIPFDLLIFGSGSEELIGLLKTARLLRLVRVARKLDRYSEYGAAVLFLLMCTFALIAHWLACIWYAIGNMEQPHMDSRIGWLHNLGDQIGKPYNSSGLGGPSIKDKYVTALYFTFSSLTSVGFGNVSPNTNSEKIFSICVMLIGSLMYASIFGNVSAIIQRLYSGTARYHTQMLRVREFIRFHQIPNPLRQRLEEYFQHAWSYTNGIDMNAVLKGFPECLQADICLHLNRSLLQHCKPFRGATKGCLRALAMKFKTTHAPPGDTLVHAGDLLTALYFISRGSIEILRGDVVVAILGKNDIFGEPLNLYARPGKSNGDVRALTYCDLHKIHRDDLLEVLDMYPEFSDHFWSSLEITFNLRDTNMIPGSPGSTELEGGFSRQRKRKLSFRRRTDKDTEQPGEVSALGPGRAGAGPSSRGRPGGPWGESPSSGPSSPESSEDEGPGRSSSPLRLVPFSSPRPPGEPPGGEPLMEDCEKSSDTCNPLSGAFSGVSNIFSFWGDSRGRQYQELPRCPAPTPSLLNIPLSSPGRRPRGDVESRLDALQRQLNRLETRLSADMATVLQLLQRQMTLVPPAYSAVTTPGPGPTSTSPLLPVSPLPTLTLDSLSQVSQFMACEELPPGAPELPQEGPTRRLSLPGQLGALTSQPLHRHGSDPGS
smiles,measurement,setting,value
Cc1[nH]c2nc(N)nc(C)c2c1-c1ccc(C#N)c2c1OCO2 [DNDI-6174],CC50,[1],> 64000 nM
same,A-B Mass balance,Caco-2 cell monolayers,98%
same,B-A Mass balance,Caco-2 cell monolayers,96%
same,Papp A→B,Caco-2 permeability,71 ×10⁻⁶ cm/s
same,Papp B→A,Caco-2 permeability,72 ×10⁻⁶ cm/s
same,CC50,[2],> 50000 nM
same,IC50,NaV1.5,> 50000 nM
same,EC50,L. donovani; [4],50 nM
same,EC90,L. donovani; [4],140 nM
same,EC50,L. donovani; L. donovani MHOM/ET/67/HU3,90 nM
same,EC90,L. donovani; L. donovani MHOM/ET/67/HU3,2000 nM
same,EC50,L. donovani; [5],80 nM
same,EC90,L. donovani; [5],280 nM
same,EC50,L. donovani; L. donovani MHOM/IN/80/DD8,170 nM
same,EC90,L. donovani; L. donovani MHOM/IN/80/DD8,490 nM
same,EC50,L. donovani; [6],40 nM
same,EC90,L. donovani; [6],120 nM
same,IC50,hERG potassium channel,31600 nM
same,minimum efficacious daily dose,L. infantum; given qd for 5 days,12.5 mg/kg
same,reduction of the parasite burden,"L. infantum; once daily dosing at and above 12.5 mg/kg, liver, spleen and bone-marrow",more than 99%
same,increase in Cmax over the 5-day dosing period,In vivo pharmacokinetics; bid dosing in mice,approximately 2 fold
same,clearance,"In vivo pharmacokinetics; female, BALB/c, mouse, plasma, iv, 2 mg/kg, Mouse, read-out: Measured in vivo CLplasma",7.5 mL/min/kg
same,AUC(0-t),In vivo pharmacokinetics; [7],10600 ng·h/mL
same,AUC,In vivo pharmacokinetics; [7],15700 ng·h/mL
same,Cmax,In vivo pharmacokinetics; [7],600 ng/mL
same,Cmax at 5 days,In vivo pharmacokinetics; [7],1350 ng/mL
same,AUC(0-t),In vivo pharmacokinetics; [8],35500 ng·h/mL
same,AUC,In vivo pharmacokinetics; [8],37000 ng·h/mL
same,Cmax,In vivo pharmacokinetics; [8],1930 ng/mL
same,Cmax at 5 days,In vivo pharmacokinetics; [8],3040 ng/mL
same,AUC(0-t),In vivo pharmacokinetics; [9],94500 ng·h/mL
same,AUC,In vivo pharmacokinetics; [9],93300 ng·h/mL
same,Cmax,In vivo pharmacokinetics; [9],3830 ng/mL
same,Cmax at 5 days,In vivo pharmacokinetics; [9],6810 ng/mL
same,AUC(0-inf),"In vivo pharmacokinetics; female, BALB/c, plasma, Mouse, intravenous 2.0 mg/kg, read-out: Plasma AUC0-inf",4470 ng·h/mL
same,half-life,"In vivo pharmacokinetics; female, BALB/c, plasma, Mouse, oral 25 mg/kg, read-out: Apparent t1/2 (converted)",3.7 h
same,AUC(0-inf),"In vivo pharmacokinetics; female, BALB/c, plasma, Mouse, oral 25 mg/kg, read-out: Plasma AUC0-∞",75500 ng·h/mL
same,CC50,[3],> 50000 nM
